Reference: US7655677B2, “Composition and method for controlling house insect pest” (priority 2002, dated 2010)

What was measured:
Format in all cases: in vivo
Coptotermes formosanus [1] = experiment: Test Example 17: dust placed in ant trail, termite mortality with time; settings: 0.5% dust, 10 mg in ant trail
Procedure: Soil was packed in a cylindrical connection section made of an acrylic resin connecting two cups made of acrylic resin (i.e. cups each having a hole with a diameter of 10 mm formed in the bottom and having hard plaster (Dental Stone) set at the bottom in a thickness of 10 mm), and 30 termite workers and 3 termite soldiers (Coptotermes formosanus) were released to let them form an ant trail. Then, at the center portion of the ant trail, 10 mg of a dust prepared by mixing in a mortar 0.5 part by weight of a sample compound and 99.5 parts by weight of cellulose powder, was placed. This test apparatus was put into a container having wet cotton laid over the bottom and kept at room temperature of 25° C., whereby the number of dead termites in the cup was examined as the time passed, and the mortality was calculated. Further, for the purpose of comparison, a similar test was carried out with respect to a dust containing 0.5% of fipronil (Terminal Dust, tradename, manufactured by Aventis Crop Science Shionogi K.K.).

Lasius japonicus = experiment: Test Example 23: skim milk poison bait placed near ant nest, number of ants passing the gate per minute; settings: 0.2% (W/W) bait, ants through the gate per minute
From the text: 2 g of this poison bait chemical was placed directly on an optional ground surface distanced by about 50 cm from the gate of the ant nest. Before, 2 days after, 3 days after and 5 days after placing the poison bait chemical, the number of ants going out and coming in through the gate per minute was examined.

Reticulitermes speratus = experiment: Test Example 10: coated Japanese red pine wood block, termite mortality and weight loss after 24 days; settings: wood block coated with 0.2% solution
Procedure: Mean weight loss (%) of the wood block=(W1−W2/W1)×100
A solution containing a sample compound in a predetermined concentration was coated by a paint brush in an amount of 110±10 mg on a rectangular parallelpiped wood block of Japanese red pine (20 mm×10 mm×10 mm). The treated wood block was naturally dried in a dark room of 25° C. for 14 days. Then, the treated wood block and a non-treated wood block were dried at a temperature of 60° C. for 72 hours, and their weights (W1) were measured, and they were used as test specimens. Such a test specimen was put into a cylindrical cup made of acrylic resin (i.e. a cup having a hole with a diameter of 10 mm formed in the bottom and having hard plaster (Dental Stone) set at the bottom in a thickness of 10 mm), and 150 termite workers and 10 termite soldiers (Reticulitermes speratus) were released thereon. The cup was placed in a container having wet cotton laid over the bottom, and the container was maintained at room temperature of 25° C. for 24 days, whereupon the mortality of termites in the cup was examined. Further, the test specimen was taken out from the cup, and the deposited substance was removed from the surface of the test specimen. After drying at a temperature of 60° C. for 72 hours, it was weighed to obtain the weight (W2), whereupon the mean weight loss was calculated.

Coptotermes formosanus [2] = experiment: Test Example 13: Japanese red pine poison bait, termite mortality and abnormal ratio with time
From the text: A wood block of Japanese red pine (2 cm×2 cm×0.5 cm) subjected to boiling treatment in hot water, was immersed in a methanol solution of a sample compound, and then, it was dried to obtain a Japanese red pine poison bait chemical containing the sample compound in a predetermined concentration. This poison bait chemical was put into a cylindrical cup made of acrylic resin (i.e. a cup having a hole with a diameter of 10 mm formed in the bottom and having hard plaster (Dental Stone) set at the bottom in the thickness of 10 mm), and 15 termite workers (Coptotermes formosanus) were released thereon. The cup was placed in a container having wet cotton laid over the bottom, and the container was maintained at room temperature of 25° C., whereby the number of dead termites and abnormal termites in the cup was examined as the time passed, and the mortality was calculated.

Coptotermes formosanus [3] = experiment: Test Example 19: gel coated on Japanese red pine wood block, termite mortality with time
From the text: A gel prepared by uniformity mixing 0.2 part by weight of […], 20 parts by weight of sorbitol, 3.5 parts by weight of cross-linked product of a starch/sodium acrylate copolymer, a predetermined amount of a sample compound and a predetermined amount of water, was coated in an amount of 110 g/m^2 on a dried rectangular parallelpiped wood block of Japanese red pine of 20 mm (L)×10 mm (R)×10 mm (T). This test specimen was put into a cylindrical cup made of acrylic resin (i.e. a cup having a hole with a diameter of 10 mm in the bottom and having hard plaster (Dental Stone) set at the bottom in a thickness of 10 mm), and 20 termite workers (Coptotermes formosanus) were released thereon. The cup was placed in a container having wet cotton laid over the bottom, and the container was maintained at room temperature of 25° C., whereby the number of dead termites in the cup was examined as the time passed, and the mortality was calculated.

Question: `CC(=NN=C(Cc1ccc(C(F)(F)F)cc1)c1ccc(F)cc1)N(C)C` [Compound No. II-2, [4′-fluoro-2-(4-trifluoromethylphenyl)acetophenone]N′-[1-(dimethylamino)ethylidene]hydrazone] was tested. Which Mortality (Coptotermes formosanus [1]; 6 Days later) did it give?
Answer: 37%

Question: And the Mortality (Coptotermes formosanus [1]; 11 Days later)?
Answer: 100%

Question: And the Mortality (Coptotermes formosanus [1]; 15 Days later)?
Answer: 100%

Question: What about the “Ants passing the nest gate per minute” value (Lasius japonicus; 2 Days later) of the same compound?
Answer: 11

Question: What about the “Ants passing the nest gate per minute” value (Lasius japonicus; 3 Days later) of the same compound?
Answer: 3

Question: What about the “Ants passing the nest gate per minute” value (Lasius japonicus; 5 Days later) of the same compound?
Answer: 0

Question: What about the “Ants passing the nest gate per minute” value (Lasius japonicus; Before placing poison bait chemical) of the same compound?
Answer: 153

Question: And the Mean weight loss (Reticulitermes speratus)?
Answer: 2.9%

Question: And the “Mortality Termite soldiers” value (Reticulitermes speratus)?
Answer: 100%

Question: And the “Mortality Termite workers” value (Reticulitermes speratus)?
Answer: 100%

Question: And the Mortality (Coptotermes formosanus [2]; bait 0.005%, 4 Days later)?
Answer: 0%

Question: And the Mortality (Coptotermes formosanus [2]; bait 0.005%, 8 Days later)?
Answer: 0%

Question: And the Mortality (Coptotermes formosanus [2]; bait 0.005%, 10 Days later)?
Answer: 0%

Question: What about the Mortality (Coptotermes formosanus [2]; bait 0.005%, 14 Days later) of the same compound?
Answer: 30%

Question: And the Mortality (Coptotermes formosanus [2]; bait 0.005%, 17 Days later)?
Answer: 30 (30) %

Question: And the abnormal ratio (Coptotermes formosanus [2]; bait 0.005%, 17 Days later)?
Answer: 30 (30) %

Question: What about the Mortality (Coptotermes formosanus [2]; bait 0.005%, 23 Days later) of the same compound?
Answer: 100%

Question: And the Mortality (Coptotermes formosanus [2]; bait 0.01%, 4 Days later)?
Answer: 0%

Question: And the Mortality (Coptotermes formosanus [2]; bait 0.01%, 8 Days later)?
Answer: 40%

Question: And the abnormal ratio (Coptotermes formosanus [2]; bait 0.01%, 8 Days later)?
Answer: 60%

Question: What about the Mortality (Coptotermes formosanus [2]; bait 0.01%, 10 Days later) of the same compound?
Answer: 55%

Question: And the abnormal ratio (Coptotermes formosanus [2]; bait 0.01%, 10 Days later)?
Answer: 45%

Question: And the Mortality (Coptotermes formosanus [2]; bait 0.01%, 14 Days later)?
Answer: 60%

Question: And the abnormal ratio (Coptotermes formosanus [2]; bait 0.01%, 14 Days later)?
Answer: 40%

Question: And the Mortality (Coptotermes formosanus [2]; bait 0.01%, 17 Days later)?
Answer: 100%

Question: And the Mortality (Coptotermes formosanus [2]; bait 0.01%, 23 Days later)?
Answer: 100%

Question: And the Mortality (Coptotermes formosanus [2]; bait 0.05%, 4 Days later)?
Answer: 47%

Question: What about the Mortality (Coptotermes formosanus [2]; bait 0.05%, 8 Days later) of the same compound?
Answer: 47%

Question: And the abnormal ratio (Coptotermes formosanus [2]; bait 0.05%, 8 Days later)?
Answer: 14%

Question: What about the Mortality (Coptotermes formosanus [2]; bait 0.05%, 10 Days later) of the same compound?
Answer: 80%

Question: And the abnormal ratio (Coptotermes formosanus [2]; bait 0.05%, 10 Days later)?
Answer: 7%

Question: What about the Mortality (Coptotermes formosanus [2]; bait 0.05%, 14 Days later) of the same compound?
Answer: 100%

Question: What about the Mortality (Coptotermes formosanus [2]; bait 0.05%, 17 Days later) of the same compound?
Answer: 100%

Question: What about the Mortality (Coptotermes formosanus [2]; bait 0.05%, 23 Days later) of the same compound?
Answer: 100%

Question: What about the Mortality (Coptotermes formosanus [2]; bait 0.1%, 4 Days later) of the same compound?
Answer: 73%

Question: And the Mortality (Coptotermes formosanus [2]; bait 0.1%, 8 Days later)?
Answer: 100%

Question: And the Mortality (Coptotermes formosanus [2]; bait 0.1%, 10 Days later)?
Answer: 100%

Question: What about the Mortality (Coptotermes formosanus [2]; bait 0.1%, 14 Days later) of the same compound?
Answer: 100%

Question: What about the Mortality (Coptotermes formosanus [2]; bait 0.1%, 17 Days later) of the same compound?
Answer: 100%

Question: And the Mortality (Coptotermes formosanus [2]; bait 0.1%, 23 Days later)?
Answer: 100%

Question: And the Mortality (Coptotermes formosanus [3]; gel 0.005%, 2 Days later)?
Answer: 0%

Question: And the Mortality (Coptotermes formosanus [3]; gel 0.005%, 6 Days later)?
Answer: 0%

Question: And the Mortality (Coptotermes formosanus [3]; gel 0.005%, 12 Days later)?
Answer: 10%

Question: And the Mortality (Coptotermes formosanus [3]; gel 0.005%, 23 Days later)?
Answer: 30%

Question: And the Mortality (Coptotermes formosanus [3]; gel 0.005%, 34 Days later)?
Answer: 60%

Question: And the Mortality (Coptotermes formosanus [3]; gel 0.01%, 2 Days later)?
Answer: 0%

Question: And the Mortality (Coptotermes formosanus [3]; gel 0.01%, 6 Days later)?
Answer: 0%

Question: And the Mortality (Coptotermes formosanus [3]; gel 0.01%, 12 Days later)?
Answer: 10%

Question: What about the Mortality (Coptotermes formosanus [3]; gel 0.01%, 23 Days later) of the same compound?
Answer: 60%

Question: And the Mortality (Coptotermes formosanus [3]; gel 0.01%, 34 Days later)?
Answer: 100%

Question: And the Mortality (Coptotermes formosanus [3]; gel 0.05%, 2 Days later)?
Answer: 0%

Question: And the Mortality (Coptotermes formosanus [3]; gel 0.05%, 6 Days later)?
Answer: 0%

Question: And the Mortality (Coptotermes formosanus [3]; gel 0.05%, 12 Days later)?
Answer: 100%

Question: And the Mortality (Coptotermes formosanus [3]; gel 0.05%, 23 Days later)?
Answer: 100%

Question: And the Mortality (Coptotermes formosanus [3]; gel 0.05%, 34 Days later)?
Answer: 100%

Question: What about the Mortality (Coptotermes formosanus [3]; gel 0.1%, 2 Days later) of the same compound?
Answer: 0%

Question: What about the Mortality (Coptotermes formosanus [3]; gel 0.1%, 6 Days later) of the same compound?
Answer: 60%

Question: And the Mortality (Coptotermes formosanus [3]; gel 0.1%, 12 Days later)?
Answer: 100%

Question: What about the Mortality (Coptotermes formosanus [3]; gel 0.1%, 23 Days later) of the same compound?
Answer: 100%

Question: What about the Mortality (Coptotermes formosanus [3]; gel 0.1%, 34 Days later) of the same compound?
Answer: 100%
